Measured values published in ChEMBL document CHEMBL1201862, “PubChem BioAssay data set” (2004).
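Following 48 hours of exposure in 96-well plates, responses at five concentrations were used to interpolate endpoints linearly. GI50 is the concentration that inhibits growth by half.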 The source made the active and inactive calls. No stated cut-off is given here; in the data, active = GI50 up to about 1.1 µM and inactive = higher.

How the values were obtained:
Test in all cases: DTP human tumour cell line panel, 48 h
M14 = tested on: M14
HT-29 = tested on: HT-29
COLO 205 = tested on: COLO 205
BT-549 = tested on: BT-549
SF-539 = tested on: SF-539
EKVX = tested on: EKVX
UACC-62 = tested on: UACC-62
OVCAR-3 = tested on: OVCAR-3
CCRF-CEM = tested on: CCRF-CEM
SNB-19 = tested on: SNB-19
MCF7 = tested on: MCF7
LOX IMVI = tested on: LOX IMVI
NCI-H23 = tested on: NCI-H23
U-251 = tested on: U-251
SF-268 = tested on: SF-268
HOP-62 = tested on: HOP-62
NCI-H226 = tested on: NCI-H226
OVCAR-8 = tested on: OVCAR-8
MOLT-4 = tested on: MOLT-4
CAKI-1 = tested on: CAKI-1

Measured: GI50

OCCN(/N=C\c1ccc2ccccc2c1)C1=NCCN1
inactive: M14 18.6 µM | HT-29 27.5 µM | COLO 205 17.9 µM | BT-549 42.8 µM | SF-539 21 µM | EKVX 40.5 µM | UACC-62 21.3 µM | OVCAR-3 23.2 µM | CCRF-CEM 27.6 µM | SNB-19 32.4 µM | MCF7 36.1 µM | LOX IMVI 16.3 µM | NCI-H23 27.7 µM | U-251 24.9 µM | SF-268 35.1 µM | HOP-62 42.6 µM | NCI-H226 12.9 µM | OVCAR-8 48.4 µM | MOLT-4 18.2 µM

COC(=O)c1c(C)cccc1/C=C1\Cc2cc(C)cc(C)c2C1=O
inactive: M14 55 µM | HT-29 89.5 µM | BT-549 > 100 µM | SF-539 35.1 µM | EKVX 37.6 µM | UACC-62 10 µM | OVCAR-3 50.6 µM | CCRF-CEM > 100 µM | SNB-19 18.5 µM | MCF7 25.8 µM | LOX IMVI > 100 µM | NCI-H23 51.1 µM | U-251 15.3 µM | SF-268 30.8 µM | HOP-62 12 µM | NCI-H226 56.5 µM | OVCAR-8 63.8 µM | MOLT-4 > 100 µM | CAKI-1 > 100 µM

CCc1cccc(C(C)C)c1NC(=O)C(=O)Nn1c(S)nc2ccccc2c1=O
inactive: M14 > 100 µM | HT-29 > 100 µM | BT-549 > 100 µM | SF-539 > 100 µM | EKVX 37.8 µM | UACC-62 > 100 µM | OVCAR-3 > 100 µM | CCRF-CEM > 100 µM | MCF7 > 100 µM | LOX IMVI > 100 µM | NCI-H23 > 100 µM | U-251 > 100 µM | SF-268 > 100 µM | HOP-62 > 100 µM | NCI-H226 > 100 µM | OVCAR-8 > 100 µM | MOLT-4 > 100 µM | CAKI-1 > 100 µM

CC(=O)O[C@H]1/C(=C/c2ccc(N(C)C)cc2)C[C@H]2[C@@H]3CC=C4C[C@@H](N5CCCC5)CC[C@]4(C)[C@H]3CC[C@]12C
inactive: M14 > 100 µM | HT-29 63.2 µM | COLO 205 > 100 µM | BT-549 > 100 µM | SF-539 > 100 µM | EKVX > 100 µM | UACC-62 > 100 µM | OVCAR-3 > 100 µM | SNB-19 > 100 µM | MCF7 > 100 µM | LOX IMVI 35.6 µM | NCI-H23 > 100 µM | U-251 > 100 µM | SF-268 > 100 µM | HOP-62 > 100 µM | NCI-H226 > 100 µM | OVCAR-8 > 100 µM | MOLT-4 > 100 µM

O=C1N[C@@H](c2c[nH]c3cc(Br)ccc23)C(=O)N[C@H]1c1c[nH]c2cc(Br)ccc12
inactive: M14 > 100 µM | HT-29 > 100 µM | COLO 205 > 100 µM | BT-549 > 100 µM | SF-539 79.8 µM | EKVX > 100 µM | UACC-62 > 100 µM | OVCAR-3 > 100 µM | CCRF-CEM > 100 µM | SNB-19 > 100 µM | MCF7 > 100 µM | LOX IMVI > 100 µM | NCI-H23 > 100 µM | U-251 25.8 µM | SF-268 47.4 µM | HOP-62 > 100 µM | NCI-H226 > 100 µM | OVCAR-8 29.9 µM

CC1(C)OC(=O)N(c2ccccc2)C12C=Cc1cc([N+](=O)[O-])cc([N+](=O)[O-])c1O2 (configuration not stated)
inactive: M14 61.5 µM | HT-29 > 100 µM | COLO 205 > 100 µM | BT-549 > 100 µM | EKVX 91.8 µM | UACC-62 61 µM | OVCAR-3 97.7 µM | CCRF-CEM > 100 µM | SNB-19 > 100 µM | MCF7 > 100 µM | LOX IMVI > 100 µM | NCI-H23 > 100 µM | U-251 > 100 µM | SF-268 98.9 µM | HOP-62 97.9 µM | NCI-H226 > 100 µM | OVCAR-8 > 100 µM | MOLT-4 > 100 µM | CAKI-1 > 100 µM

COc1cc2c(cc1OC)[C@H](C)N1CCc3cc(OC)c(OC)cc3[C@@H]1C2
inactive: HT-29 > 100 µM | COLO 205 > 100 µM | BT-549 > 100 µM | SF-539 > 100 µM | EKVX > 100 µM | UACC-62 > 100 µM | OVCAR-3 > 100 µM | CCRF-CEM > 100 µM | SNB-19 > 100 µM | MCF7 > 100 µM | LOX IMVI > 100 µM | NCI-H23 > 100 µM | U-251 > 100 µM | SF-268 > 100 µM | NCI-H226 > 100 µM | OVCAR-8 > 100 µM | MOLT-4 > 100 µM | CAKI-1 > 100 µM

CCCCCCNC(=O)c1cc(CCc2cc(O)ccc2O)ccc1O
inactive: M14 6.05 µM | HT-29 20.1 µM | COLO 205 10.9 µM | BT-549 1.94 µM | EKVX 5.75 µM | OVCAR-3 2.3 µM | CCRF-CEM 1.92 µM | SNB-19 10.7 µM | MCF7 3.25 µM | LOX IMVI 4.67 µM | NCI-H23 7.89 µM | U-251 2.3 µM | SF-268 2.77 µM | HOP-62 6.24 µM | NCI-H226 4.23 µM | OVCAR-8 3.56 µM | MOLT-4 1.93 µM | CAKI-1 3.32 µM
